Source: paper PMC10304174, “Development of Zeise’s Salt Derivatives Bearing Substituted Acetylsalicylic Acid Substructures as Cytotoxic COX Inhibitors” (Pharmaceutics, 2023)

Experiments:
[1] = Complex stability by capillary electrophoresis (decrease of initial complex over time); assay type: physicochemical; conditions: MeOH/water (50/50, v/v), 1 mM, 37 °C, CE
Procedure: The analysis was performed as previously described. A 50 mM sodium tetraborate solution (pH = 9.3, adjusted with 1 M NaOH), served as background electrolyte (BGE). Washing of novel capillaries consecutively with 1 M NaOH (45 min), water (45 min), and BGE (45 min) was performed. The hydrodynamic injection mode was utilized to introduce the samples into the capillary (50 mbar for 2 s). The capillary was kept at 25 °C, and the autosampler was thermostatted at 37 °C with an external water bath. For separation, the voltage was set to 20 kV, and the detection was carried out at the wavelength of 230 nm. Before each measurement, flushing of the capillary with 0.1 M NaOH (3 min), water (3 min), and BGE (5 min) took place. The samples were dissolved in methanol (MeOH) and further diluted in equal parts by volume with water to give a final concentration of 1 mM. Triple determinations were performed, and the half-lives (τ½) are presented as mean ± SD of ≥3 independent experiments. Samples, washing solutions, and buffers were filtered through a membrane with 0.22 µm porosity and degassed by ultrasonication before use. To simplify the reaction dynamics from a possible second-order to pseudo-first-order, one of two reactants must be present in great excess (>10 to 25-fold). If this condition is fulfilled, logarithmic plotting of the gradual decrease in the other reactant’s concentration (or increase in the concentration of a product, respectively) against the time yields a straight line, and half-lives can be calculated.
An already-established method was used to study the stability of the X-ASA-Prop-PtCl3 and X-ASA-But-PtCl3 complexes. The degradation products were separated by capillary electrophoresis using a fused-silica capillary ([…] × 75 µm, effective length: 56 cm, capillary temperature: 25 °C) and a 50 mM tetraborate buffer (pH = 9.3) as BGE. For separation, the voltage was set to 20 kV and the compounds were detected at 230 nm. Benzoic acid was used as an internal standard. Exemplary electropherograms of each complex can be found in the Supplementary Material (Figures S1–S24).
The complexes (1 mM) were dissolved in MeOH or MeOH/water (50/50, v/v) and stored at 37 °C. The decrease in the initial amount of complex was monitored time-dependently by CE, and the half-life (τ½) was calculated (Table 2).

[2] = molecular target: T1, COX-1 (Ovis aries, UniProt P05979); assay: COX Inhibitor Screening Assay (EIA) on isolated COX-1 isoenzyme; assay type: biochemical, ovine; conditions: for Inhibition of COX-1: 1 µM, incubation 10 min
T1 construct: purchased Cayman Chemicals
T1 sequence (P05979 25-600): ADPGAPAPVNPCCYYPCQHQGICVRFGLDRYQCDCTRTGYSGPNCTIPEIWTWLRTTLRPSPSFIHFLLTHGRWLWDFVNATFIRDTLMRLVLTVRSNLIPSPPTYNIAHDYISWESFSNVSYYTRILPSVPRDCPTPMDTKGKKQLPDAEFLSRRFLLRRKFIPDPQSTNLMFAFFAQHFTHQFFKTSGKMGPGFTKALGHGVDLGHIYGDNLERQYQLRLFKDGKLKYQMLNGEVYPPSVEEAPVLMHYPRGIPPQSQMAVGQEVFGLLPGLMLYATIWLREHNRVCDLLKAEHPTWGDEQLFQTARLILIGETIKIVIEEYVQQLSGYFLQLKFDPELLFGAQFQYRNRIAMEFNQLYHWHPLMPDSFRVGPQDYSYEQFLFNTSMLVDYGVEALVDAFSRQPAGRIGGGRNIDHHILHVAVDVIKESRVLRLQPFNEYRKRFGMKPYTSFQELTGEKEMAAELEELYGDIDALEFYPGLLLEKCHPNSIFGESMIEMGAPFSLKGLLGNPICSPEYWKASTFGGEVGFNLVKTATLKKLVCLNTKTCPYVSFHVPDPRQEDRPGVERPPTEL
Procedure: (§1) The incubation of the respective complexes with the isoenzymes was exactly 10 min. The values of COX inhibition were calculated as the mean of duplicates and shown as the mean ± SD of ≥2 independent experiments.

[3] = molecular target: T2, COX-2 (Homo sapiens, UniProt P35354); assay: COX Inhibitor Screening Assay (EIA) on isolated COX-2 isoenzyme; assay type: biochemical; conditions: for Inhibition of COX-2: 1 µM, incubation 10 min
T2 construct: purchased Cayman Chemicals
T2 sequence (P35354 18-604): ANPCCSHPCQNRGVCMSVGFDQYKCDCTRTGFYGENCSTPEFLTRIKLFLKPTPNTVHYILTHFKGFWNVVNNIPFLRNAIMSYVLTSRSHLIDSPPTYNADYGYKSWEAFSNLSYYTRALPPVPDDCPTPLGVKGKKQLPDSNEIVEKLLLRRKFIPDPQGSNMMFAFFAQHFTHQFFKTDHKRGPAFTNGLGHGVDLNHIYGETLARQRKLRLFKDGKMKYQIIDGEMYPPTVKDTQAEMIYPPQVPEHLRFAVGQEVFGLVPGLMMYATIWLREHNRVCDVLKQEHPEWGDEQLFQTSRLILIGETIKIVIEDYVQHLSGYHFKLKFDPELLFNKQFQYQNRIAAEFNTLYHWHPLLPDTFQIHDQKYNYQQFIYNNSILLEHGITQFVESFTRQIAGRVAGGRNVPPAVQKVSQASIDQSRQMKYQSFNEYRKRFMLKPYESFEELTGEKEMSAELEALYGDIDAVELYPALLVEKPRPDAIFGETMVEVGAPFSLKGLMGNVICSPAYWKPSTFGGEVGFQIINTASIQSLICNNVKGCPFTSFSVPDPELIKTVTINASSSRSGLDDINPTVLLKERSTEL
Procedure: as §1

[4] = tested on: HT-29 cells; assay: Crystal violet assay, antiproliferative effects in HT-29 cells; assay type: cell-based; conditions: HT-29 (COX-1/2-positive), 72 h
Procedure: (§2) In order to investigate the cytotoxic effects in MCF-7 and HT-29 cells, an already published crystal violet assay was used. The cells (HT-29: 3 × 10^3 cells per well in 100 µL of medium; MCF-7: 2 × 10^3 cells per well in 100 µL of medium) were seeded in their exponential growth phase in completed DMEM into 96-well microtiter plates in quadruples. […] Cells were then fixed with a solution of 1% (v/v) glutaric dialdehyde in PBS. In order to determine the cell biomass, the chromatin of the attached cells was stained with crystal violet, and the bound dye was extracted with EtOH (70%). The absorbance was measured at 590 nm. Mean values ± SD of ≥2 independent experiments were calculated, and the activity of the complexes was expressed as the cell mass of the vehicle-treated control, which was set to 100%.
(§3) The compounds were investigated regarding their cytotoxicity (in vitro) employing an already published crystal violet assay. It is based on the quantification of the cell biomass of living cells by staining the chromatin. In order to evaluate the possible influence of COX inhibition on cell growth, Zeise’s salt derivatives were investigated comparatively in HT-29 and MCF-7 cell lines.

[5] = tested on: MCF-7 cells; assay: Crystal violet assay, antiproliferative effects in MCF-7 cells; assay type: cell-based; conditions: MCF-7 (COX-negative), 72 h
Procedure: as §2, §3

[6] = tested on: PGE2 synthesis in HT-29 cells; assay: Inhibition of the PGE2 synthesis in HT-29 cells (PGE2 EIA); assay type: cell-based; conditions: 10 µM, 24 h at 37 °C, then 50 µM arachidonic acid 1 h
Procedure: Exponentially growing HT-29 cells were seeded into 24-well plates at a concentration of 5 × 10^4 cells in 500 µL of cell culture medium per well. […] In the next step, the substrate arachidonic acid (Sigma Aldrich, St. Louis, MO, USA) at a concentration of 50 µM was added. After 1 h, the COX-catalyzed PGE2 production was stopped by removing the supernatant from the cells, which was analyzed by EIA (Prostaglandin E2 Kit—Monoclonal, Cayman Chemicals, Ann Arbor, MI, USA) according to the manufacturer’s protocol.
HT-29 cells express both isoenzymes at high levels, allowing COX-1/2 interaction to be studied using an antibody-based PGE2 assay, which quantifies the PGE2 released by the cells into the cell culture medium. All Zeise’s salt derivatives were tested at a concentration of 10 µM (Figure 4).

SMILES	Half-life (τ½) [1]	Inhibition of COX-1 [2]	Inhibition of COX-2 [3]	IC50 [4]	IC50 [5]	Inhibition of PGE2 synthesis [6]	COX-2 selectivity ([3]; from inhibition at 1 µM, COX-2 over COX-1)	COX-1 selectivity ([2]; from inhibition at 1 µM, COX-1 over COX-2)
CC(=O)Oc1c(Cl)cccc1C(=O)OC[CH]1[CH2][Pt-]1([Cl])([Cl])[Cl].[K+] (stereo not shown) [3-Cl-ASA-Prop-PtCl3, Potassium trichlorido[η^2-(prop-2-en-1-yl)-2-acetoxy-3-chlorobenzoate]platinate(II)]	31.4 ± 1.7 min	51.7%	58.8%	89.7 ± 25.7 µM	56.3 ± 5.8 µM			
CC(=O)Oc1c(F)cccc1C(=O)OC[CH]1[CH2][Pt-]1([Cl])([Cl])[Cl].[K+] (stereo not shown) [3-F-ASA-Prop-PtCl3, Potassium trichlorido[η^2-(prop-2-en-1-yl)-2-acetoxy-3-fluorobenzoate]platinate(II)]	30.5 ± 1.4 min		20.7%	86.9 ± 3.9 µM	85.2 ± 21.8 µM			
CC(=O)Oc1cc(C)ccc1C(=O)OC[CH]1[CH2][Pt-]1([Cl])([Cl])[Cl].[K+] (stereo not shown) [4-CH3-ASA-Prop-PtCl3, Potassium trichlorido[η^2-(prop-2-en-1-yl)-2-acetoxy-4-methylbenzoate]platinate(II)]	40.4 ± 1.1 min			24.2 ± 2.4 µM	62.9 ± 1.6 µM	88.4%		
CC(=O)Oc1cc(Cl)ccc1C(=O)OCC[CH]1[CH2][Pt-]1([Cl])([Cl])[Cl].[K+] (stereo not shown) [4-Cl-ASA-But-PtCl3, Potassium trichlorido[η^2-(but-3-en-1-yl)-2-acetoxy-4-chlorobenzoate]platinate(II)]	2370 ± 144 min	47.9%	40.0%	35.2 ± 9.3 µM	31.7 ± 8.7 µM			
CC(=O)Oc1cc(Cl)ccc1C(=O)OC[CH]1[CH2][Pt-]1([Cl])([Cl])[Cl].[K+] (stereo not shown) [4-Cl-ASA-Prop-PtCl3, Potassium trichlorido[η^2-(prop-2-en-1-yl)-2-acetoxy-4-chlorobenzoate]platinate(II)]	32.7 ± 1.8 min			89.8 ± 23.9 µM	70.7 ± 3.6 µM		1.5 fold	
CC(=O)Oc1cc(F)ccc1C(=O)OC[CH]1[CH2][Pt-]1([Cl])([Cl])[Cl].[K+] (stereo not shown) [4-F-ASA-Prop-PtCl3, Potassium trichlorido[η^2-(prop-2-en-1-yl)-2-acetoxy-4-fluorobenzoate]platinate(II)]	32.1 ± 1.1 min		17.5%	107 ± 3.1 µM	150 ± 33.6 µM			
CC(=O)Oc1ccc(C)cc1C(=O)OCC[CH]1[CH2][Pt-]1([Cl])([Cl])[Cl].[K+] (stereo not shown) [5-CH3-ASA-But-PtCl3, Potassium trichlorido[η^2-(but-3-en-1-yl)-2-acetoxy-5-methylbenzoate]platinate(II)]	3140 ± 258 min	60.4%	45.0%	16.2 ± 2.5 µM	32.5 ± 4.4 µM			
CC(=O)Oc1ccc(C)cc1C(=O)OC[CH]1[CH2][Pt-]1([Cl])([Cl])[Cl].[K+] (stereo not shown) [5-CH3-ASA-Prop-PtCl3, Potassium trichlorido[η^2-(prop-2-en-1-yl)-2-acetoxy-5-methylbenzoate]platinate(II)]	36.7 ± 1.1 min			21.9 ± 4.6 µM	70.2 ± 2.8 µM	82.4%		
CC(=O)Oc1ccc(Cl)cc1C(=O)OC[CH]1[CH2][Pt-]1([Cl])([Cl])[Cl].[K+] (stereo not shown) [5-Cl-ASA-Prop-PtCl3, Potassium trichlorido[η^2-(prop-2-en-1-yl)-2-acetoxy-5-chlorobenzoate]platinate(II)]	35.2 ± 0.9 min			53.4 ± 0.7 µM	52.8 ± 9.2 µM	84.0%		1.7 fold
CC(=O)Oc1cccc(Cl)c1C(=O)OCC[CH]1[CH2][Pt-]1([Cl])([Cl])[Cl].[K+] (stereo not shown) [6-Cl-ASA-But-PtCl3, Potassium trichlorido[η^2-(but-3-en-1-yl)-2-acetoxy-6-chlorobenzoate]platinate(II)]	3110 ± 462 min			57.5 ± 19.2 µM	42.3 ± 8.3 µM			
CC(=O)Oc1cccc(Cl)c1C(=O)OC[CH]1[CH2][Pt-]1([Cl])([Cl])[Cl].[K+] (stereo not shown) [6-Cl-ASA-Prop-PtCl3, Potassium trichlorido[η^2-(prop-2-en-1-yl)-2-acetoxy-6-chlorobenzoate]platinate(II)]	39.5 ± 1.9 min			38.4 ± 3.4 µM	85.9 ± 9.2 µM			
CC(=O)Oc1cccc(F)c1C(=O)OCC[CH]1[CH2][Pt-]1([Cl])([Cl])[Cl].[K+] (stereo not shown) [6-F-ASA-But-PtCl3, Potassium trichlorido[η^2-(but-3-en-1-yl)-2-acetoxy-6-fluorobenzoate]platinate(II)]	2080 ± 90 min			99.7 ± 0.4 µM	92.6 ± 23.8 µM			
CC(=O)Oc1cccc(F)c1C(=O)OC[CH]1[CH2][Pt-]1([Cl])([Cl])[Cl].[K+] (stereo not shown) [6-F-ASA-Prop-PtCl3, Potassium trichlorido[η^2-(prop-2-en-1-yl)-2-acetoxy-6-fluorobenzoate]platinate(II)]	29.1 ± 0.3 min			114 ± 7.1 µM	≥ 200 µM			
